In data set [1] the test system is CTC spheroid derived from blood samples of patient A. Kind of data set: Ex vivo drug assay on CTC spheroids of patient A. In kind it is cell-based, human. The conditions noted are these: for diameter and morphology of CTC spheroid: after treatment for 3 days, versus untreated mock group. As for the experimental part:
FIGS. 3A-F show the in vitro drug test results of CTC-derived spheroids and clinical-pathological results of the clinical patient. (A) The drug cytotoxicity assay results on the patient-derived CTC-originated spheroid of patient A. Six chemotherapeutic drugs were tested in this assay include oxaliplatin, docetaxel, doxorubicin, irinotecan, mitomycin-C, and 5-FU. (B and D) The image of the morphology of CTC-derived spheroids after drug panel treatment at day 3. Scale bar=20 μm. (C and E) The normalized viability of CTC-derived spheroids with indicated drug panel after 3 days of treatment. (F) The contrast-enhanced CT images before and after cisplatin/gemcitabine treatment of patient B.
In order to validate the ex vivo drug assay results, we tested single or combination therapeutic agents in CTC cultures derived from blood samples of patients. […] A designed ex vivo drug assay with both used and potential candidate drug panel including oxaliplatin, docetaxel, 5-FU, doxorubicin, mitomycin-c, and irinotecan was accomplished with time-dependent and dose-dependent manner (FIG. 3A). With regard to the cell morphology, the diameter of CTC spheroid derived from blood samples of patient A was about 30˜40 μm with an intact spheroid morphology in untreated mock group. […] The results highly match with the clinical treatment outcomes in the treatment resistance on the clinical used drugs. Therefore, doxorubicin was the related promising candidate drug among the un-used drugs (mitomycin-c and irinotecan) for next line treatment (FIG. 3B). Additional ex vivo drug test was also performed on patient B with urothelium cancer.
Spheroid formation on the culture platform of the invention. Collect the cell sample that would be used for cultivation on the culture platform of the invention in suspension medium. Add cell suspension medium into each well. The cells could be cultured under 37° C. incubator with humidified 5% CO2 atmosphere. Exchange half of the culture medium once or twice per week. The cultured spheroids (tumoroids) enables sustain in the culture platform of the invention for more than two weeks depends on the cell density and demand of the spheroid size.

Another data set concerns cancer of patient A. As to the kind of experiment: Clinical treatment outcome of patient A. In kind it is in vivo, human. The note with it: previous clinical treatment.

In the case of `COc1cccc2c1C(=O)c1c(O)c3c(c(O)c1C2=O)C[C@@](O)(C(=O)CO)C[C@@H]3O[C@H]1C[C@H](N)[C@H](O)[C@H](C)O1` [doxorubicin], the spheroid viability result in data set [1] (CTC spheroids of patient A under drug treatment) was “lower than 4%”. Moreover, the “diameter and morphology of CTC spheroid” value in data set [1] is reported as “obvious broken morphology”.

Consider `O=C1[O][Pt]2([NH][C@@H]3CCCC[C@H]3[NH]2)[O]C1=O` [oxaliplatin], for which, in data set [1], the “diameter and morphology of CTC spheroid” value was “smaller than the mock group and became leakage in appearance”. Besides, in the data set on cancer of patient A, the clinical treatment outcome is “progression disease”. As to `CC(=O)O[C@@]12CO[C@@H]1C[C@H](O)[C@@]1(C)C(=O)[C@H](O)C3=C(C)[C@@H](OC(=O)[C@H](O)[C@@H](NC(=O)OC(C)(C)C)c4ccccc4)C[C@@](O)([C@@H](OC(=O)c4ccccc4)[C@H]21)C3(C)C` [docetaxel], in the data set with cancer of patient A, the clinical treatment outcome was “progression disease”.

`O=c1[nH]cc(F)c(=O)[nH]1` [5-FU, fluorouracil]: in data set [1], the “diameter and morphology of CTC spheroid” value was “smaller than the mock group and became leakage in appearance”. Moreover, the clinical treatment outcome in the data set on cancer of patient A was “progression disease”.
